From US20100255580A1, “Differentiation of Human Embryonic Stem Cells” (LIFESCCAN, INC., priority 2007, published 2010)

Test system: H9 embryonic stem cells
Type: cell-based, human
Experimental: Controls for each group included cells plated on […]-coated dishes and cultured in MEF-conditioned medium or cells plated on MEFs and cultured in ES medium. All groups contained three biological replicates and each biological replicate was repeated on two separate gene chips.
Sample preparation, hybridization, and image analysis were performed according to the Affymetrix Human Genome U133 Plus 2.0 Array. Following normalization and a log transformation, data analysis was performed using OmniViz® software (MA) and […] (VizXLabs, WA). Significant differences in gene expression between the samples were evaluated using analysis of variance and an F-test with adjusted P-value (Benjamini and
Hochberg correction) of ≦b 0.05. Only genes with a present call in at least one group were included in the analysis.

[1] = DE treatment in low serum, on MEFS

Activin A: a member of the TGFβ superfamily; R&D Systems; Group 2 = Activin A (100 ng/ml)
mean normalized intensity (log format), gene: Homo sapiens methyl-CpG binding protein MBD2 (MBD2) mRNA, complete cds. [1]: −1.702
mean normalized intensity (log format), gene: Homo sapiens tachykinin, precursor 1 (TAC1), transcript variant beta, mRNA. [1]: 1.483
mean normalized intensity (log format), gene: Homo sapiens testis expressed sequence 14 (TEX14), mRNA. [1]: −1.3824
mean normalized intensity (log format), gene: Homo sapiens, Similar to LIM homeobox protein 8, clone IMAGE: 4839343, mRNA. [1]: −1.11
mean normalized intensity (log format), gene: Homo sapiens, Similar to cadherin 6, type 2, K-cadherin (fetal kidney), clone MGC: 1470, mRNA, complete cds. [1]: 2.134
mean normalized intensity (log format), gene: Homo sapiens, Similar to hypothetical protein FLJ10058, clone MGC: 34305 IMAGE: 5167647, mRNA, complete cds. [1]: 0.2156
mean normalized intensity (log format), gene: Homo sapiens, Similar to hypothetical protein FLJ32001, clone MGC: 39559 IMAGE: 4828136, mRNA, complete cds. [1]: 1.269
mean normalized intensity (log format), gene: Homo sapiens, clone IMAGE: 4067166, mRNA [1]: 0.277
mean normalized intensity (log format), gene: Homo sapiens, clone IMAGE: 4828836, mRNA. [1]: −1.484
mean normalized intensity (log format), gene: Homo sapiens, serine (or cysteine) proteinase inhibitor, clade B (ovalbumin), member 3, clone MGC: 12244, mRNA, complete cds. [1]: −1.566
mean normalized intensity (log format), gene: Human mRNA upregulated during camptothecin-induced apoptosis of U937 cells. [1]: −0.1892
mean normalized intensity (log format), gene: Human platelet-derived growth factor alpha-receptor (PDGFRA) mRNA, exons 13-16 [1]: 2.905
mean normalized intensity (log format), gene: KIAA1151 protein [1]: 1.009
mean normalized intensity (log format), gene: caldesmon 1 [1]: 5.634
mean normalized intensity (log format), gene: nuclear receptor subfamily 1, group I, member 3 [1]: −0.1968
mean normalized intensity (log format), gene: paternally expressed 3 (r2033) [1]: −0.0118
mean normalized intensity (log format), gene: paternally expressed 3 (r2093) [1]: −3.492
log intensity, AD036 mRNA (low serum, on MATRIGEL): −0.5033
log intensity, ADP-ribosylation factor 4-like (ARF4L) (low serum, on MATRIGEL): 1.635
log intensity, BACE mRNA for beta-site APP cleaving enzyme I-476 (low serum, on MATRIGEL): 0.4855
log intensity, BTB (POZ) domain containing 2 (BTBD2) (low serum, on MATRIGEL): 1.101
log intensity, CXCR4 gene encoding receptor CXCR4 (low serum, on MATRIGEL): 3.111
log intensity, Cluster Incl. AB002344: Human mRNA for KIAA0346 gene (r901) (low serum, on MATRIGEL): 2.157
log intensity, Cluster Incl. AB002344: Human mRNA for KIAA0346 gene (r941) (low serum, on MATRIGEL): 1.896
log intensity, Cluster Incl. L37033: Human FK-506 binding protein homologue (FKBP38) (low serum, on MATRIGEL): 0.6156
log intensity, Cluster Incl. N80935: zb07g06.s1 Homo sapiens cDNA (low serum, on MATRIGEL): 2.124
log intensity, ESTs (r403) (low serum, on MATRIGEL): 0.7843
log intensity, ESTs (r404) (low serum, on MATRIGEL): −1.263
log intensity, ESTs (r405) (low serum, on MATRIGEL): −1.717
log intensity, ESTs (r442) (low serum, on MATRIGEL): 2.774
log intensity, ESTs (r453) (low serum, on MATRIGEL): −1.637
log intensity, ESTs (r473) (low serum, on MATRIGEL): −0.04834
log intensity, ESTs (r491) (low serum, on MATRIGEL): −1.344
log intensity, ESTs (r522) (low serum, on MATRIGEL): −0.8015
log intensity, ESTs (r523) (low serum, on MATRIGEL): −2.576
log intensity, ESTs (r524) (low serum, on MATRIGEL): 0.4996
log intensity, ESTs (r556) (low serum, on MATRIGEL): −0.1206
log intensity, ESTs (r567) (low serum, on MATRIGEL): −2.015
log intensity, ESTs (r627) (low serum, on MATRIGEL): 2.542
log intensity, ESTs (r741) (low serum, on MATRIGEL): −0.004009
log intensity, ESTs (r745) (low serum, on MATRIGEL): 1.386
log intensity, ESTs (r766) (low serum, on MATRIGEL): 1.047
log intensity, ESTs (r767) (low serum, on MATRIGEL): −1.485
log intensity, ESTs (r891) (low serum, on MATRIGEL): −2.079
log intensity, ESTs (r916) (low serum, on MATRIGEL): −0.1464
log intensity, ESTs (r938) (low serum, on MATRIGEL): −1.246
log intensity, ESTs (r980) (low serum, on MATRIGEL): −0.1842
log intensity, ESTs (r1021) (low serum, on MATRIGEL): −0.4037
log intensity, ESTs (r1022) (low serum, on MATRIGEL): 2.144
log intensity, ESTs (r1059) (low serum, on MATRIGEL): 0.7835
log intensity, ESTs (r1060) (low serum, on MATRIGEL): 1.175
log intensity, ESTs (r1110) (low serum, on MATRIGEL): 0.533
log intensity, ESTs (r1115) (low serum, on MATRIGEL): −1.164
log intensity, ESTs, Highly similar to AF229172 1 class III myosin (low serum, on MATRIGEL): −0.4755
log intensity, ESTs, Moderately similar to ALU4_HUMAN ALU SUBFAMILY SB2 (low serum, on MATRIGEL): −1.104
log intensity, ESTs, Moderately similar to JC4969 pig-c protein (low serum, on MATRIGEL): −2.397
log intensity, ESTs, Moderately similar to NFY-C (low serum, on MATRIGEL): −0.7494
log intensity, ESTs, Weakly similar to A46302 PTB-associated splicing factor, long form (low serum, on MATRIGEL): 0.8941
log intensity, ESTs, Weakly similar to ALU8_HUMAN ALU SUBFAMILY SX (low serum, on MATRIGEL): 2.766
log intensity, ESTs, Weakly similar to ALUC_HUMAN (low serum, on MATRIGEL): 1.08
log intensity, ESTs, Weakly similar to ALUF_HUMAN (low serum, on MATRIGEL): −1.032
log intensity, ESTs, Weakly similar to KIAA1330 protein (low serum, on MATRIGEL): −0.9252
log intensity, ESTs, Weakly similar to KIAA1399 protein (low serum, on MATRIGEL): −0.8312
log intensity, ESTs, Weakly similar to T32252 hypothetical protein T15B7.2 (low serum, on MATRIGEL): 2.21
log intensity, ESTs, Weakly similar to Z132_HUMAN ZINC FINGER PROTEIN 13 (low serum, on MATRIGEL): 1.049
log intensity, F37Esophageal cancer-related gene-coding leucine-zipper motif (FEZ1) (low serum, on MATRIGEL): −0.1288
log intensity, FLICE-like inhibitory protein short form (low serum, on MATRIGEL): 0.1358
log intensity, GS1999full mRNA (low serum, on MATRIGEL): 0.137
log intensity, H1 histone family, member X (H1FX) (low serum, on MATRIGEL): 3.217
